{"source": "paper PMC10101930", "about": "(Immunity, 2023)", "target": "NHR-86 (Caenorhabditis elegans, UniProt Q965W2)", "sequence (Q965W2 130-405)": "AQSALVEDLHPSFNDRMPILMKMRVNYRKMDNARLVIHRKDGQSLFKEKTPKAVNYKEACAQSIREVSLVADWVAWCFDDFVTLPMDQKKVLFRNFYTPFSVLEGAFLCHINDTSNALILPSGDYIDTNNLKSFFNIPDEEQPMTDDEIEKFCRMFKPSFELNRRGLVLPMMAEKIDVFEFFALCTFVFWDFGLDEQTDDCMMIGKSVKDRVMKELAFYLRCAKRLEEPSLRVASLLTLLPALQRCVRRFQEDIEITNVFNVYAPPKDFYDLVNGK", "experiment": "intrinsic tryptophan fluorescence quenching of purified LBD", "format": "binding", "note": "pKd: −log10 of the molar value.", "data": [{"smiles": "NC(=O)c1cccc2nc3ccccc3nc12", "note": "[PCN, phenazine-1-carboxamide]", "values": [{"measurement": "pKd", "value": 4.62}]}]}
